In ChEMBL document CHEMBL1152405, “Bis-anthracenyl isoxazolyl amides have enhanced anticancer activity” (Bioorg Med Chem Lett, 2009):

Tests used:
[1] = test system: BT-549; assay: Growth inhibition of human BT549 cells at 10 uM after 24 hrs by MTT assay relative to control; format: functional; design: scale not given: the % may be the effect or the level left
[2] = test system: UO-31; assay: Growth inhibition of human UO31 cells at 10 uM after 24 hrs by MTT assay relative to control; format: functional; design: scale not given: the % may be the effect or the level left
[3] = test system: CCRF-CEM; assay: Growth inhibition of human CCRF-CEM cells at 10 uM after 24 hrs by MTT assay relative to control; format: functional; design: scale not given: the % may be the effect or the level left
[4] = test system: UACC-62; assay: Growth inhibition of human UACC62 cells at 10 uM after 24 hrs by MTT assay relative to control; format: functional; design: scale not given: the % may be the effect or the level left
[5] = test system: NCI/ADR-RES; assay: Growth inhibition of human NCI/ADR-RES cells at 10 uM after 24 hrs by MTT assay relative to control; format: functional; design: scale not given: the % may be the effect or the level left
[6] = test system: MCF7; assay: Growth inhibition of human MCF7 cells at 10 uM after 24 hrs by MTT assay relative to control; format: functional; design: scale not given: the % may be the effect or the level left
[7] = test system: OVCAR-8; assay: Growth inhibition of human OVCAR8 cells at 10 uM after 24 hrs by MTT assay relative to control; format: functional; design: scale not given: the % may be the effect or the level left
[8] = test system: TK-10; assay: Growth inhibition of human TK10 cells at 10 uM after 24 hrs by MTT assay relative to control; format: functional; design: scale not given: the % may be the effect or the level left
[9] = test system: HOP-92; assay: Growth inhibition of human HOP92 cells at 10 uM after 24 hrs by MTT assay relative to control; format: functional; design: scale not given: the % may be the effect or the level left
[10] = test system: SN12C; assay: Growth inhibition of human SN12C cells at 10 uM after 24 hrs by MTT assay relative to control; format: functional; design: scale not given: the % may be the effect or the level left
[11] = test system: ACHN; assay: Growth inhibition of human ACHN cells at 10 uM after 24 hrs by MTT assay relative to control; format: functional; design: scale not given: the % may be the effect or the level left
[12] = Growth inhibition of human Hs 578T cells at 10 uM after 24 hrs by MTT assay relative to control; format: functional; design: scale not given: the % may be the effect or the level left
[13] = test system: SW-620; assay: Growth inhibition of human SW620 cells at 10 uM after 24 hrs by MTT assay relative to control; format: functional; design: scale not given: the % may be the effect or the level left
[14] = test system: HL-60(TB); assay: Growth inhibition of human HL-60(TB) cells at 10 uM after 24 hrs by MTT assay relative to control; format: functional; design: scale not given: the % may be the effect or the level left
[15] = test system: SK-OV-3; assay: Growth inhibition of human SKOV3 cells at 10 uM after 24 hrs by MTT assay relative to control; format: functional; design: scale not given: the % may be the effect or the level left
[16] = test system: EKVX; assay: Growth inhibition of human EKVX cells at 10 uM after 24 hrs by MTT assay relative to control; format: functional; design: scale not given: the % may be the effect or the level left
[17] = test system: IGROV-1; assay: Growth inhibition of human IGROV1 cells at 10 uM after 24 hrs by MTT assay relative to control; format: functional; design: scale not given: the % may be the effect or the level left
[18] = test system: K562; assay: Growth inhibition of human K562 cells at 10 uM after 24 hrs by MTT assay relative to control; format: functional; design: scale not given: the % may be the effect or the level left
[19] = test system: A498; assay: Growth inhibition of human A498 cells at 10 uM after 24 hrs by MTT assay relative to control; format: functional; design: scale not given: the % may be the effect or the level left
[20] = test system: HCT-15; assay: Growth inhibition of human HCT15 cells at 10 uM after 24 hrs by MTT assay relative to control; format: functional; design: scale not given: the % may be the effect or the level left
[21] = test system: SK-MEL-5; assay: Growth inhibition of human SK-MEL-5 cells at 10 uM after 24 hrs by MTT assay relative to control; format: functional; design: scale not given: the % may be the effect or the level left
[22] = test system: HCT-116; assay: Growth inhibition of human HCT116 cells at 10 uM after 24 hrs by MTT assay relative to control; format: functional; design: scale not given: the % may be the effect or the level left
[23] = test system: UACC-257; assay: Growth inhibition of human UACC257 cells at 10 uM after 24 hrs by MTT assay relative to control; format: functional; design: scale not given: the % may be the effect or the level left
[24] = test system: SK-MEL-2; assay: Growth inhibition of human SK-MEL-2 cells at 10 uM after 24 hrs by MTT assay relative to control; format: functional; design: scale not given: the % may be the effect or the level left
[25] = test system: DU-145; assay: Growth inhibition of human DU145 cells at 10 uM after 24 hrs by MTT assay relative to control; format: functional; design: scale not given: the % may be the effect or the level left
[26] = test system: OVCAR-3; assay: Growth inhibition of human OVCAR-3 cells at 10 uM after 24 hrs by MTT assay relative to control; format: functional; design: scale not given: the % may be the effect or the level left
[27] = test system: HOP-62; assay: Growth inhibition of human HOP62 cells at 10 uM after 24 hrs by MTT assay relative to control; format: functional; design: scale not given: the % may be the effect or the level left
[28] = test system: LOX IMVI; assay: Growth inhibition of human LOXIMVI cells at 10 uM after 24 hrs by MTT assay relative to control; format: functional; design: scale not given: the % may be the effect or the level left
[29] = test system: HCC 2998; assay: Growth inhibition of human HCC2998 cells at 10 uM after 24 hrs by MTT assay relative to control; format: functional; design: scale not given: the % may be the effect or the level left
[30] = test system: KM12; assay: Growth inhibition of human KM12 cells at 10 uM after 24 hrs by MTT assay relative to control; format: functional; design: scale not given: the % may be the effect or the level left
[31] = test system: SF-268; assay: Growth inhibition of human SF268 cells at 10 uM after 24 hrs by MTT assay relative to control; format: functional; design: scale not given: the % may be the effect or the level left
[32] = test system: PC-3; assay: Growth inhibition of human PC3 cells at 10 uM after 24 hrs by MTT assay relative to control; format: functional; design: scale not given: the % may be the effect or the level left
[33] = test system: HT-29; assay: Growth inhibition of human HT-29 cells at 10 uM after 24 hrs by MTT assay relative to control; format: functional; design: scale not given: the % may be the effect or the level left
[34] = test system: NCI-H522; assay: Growth inhibition of human NCI-H522 cells at 10 uM after 24 hrs by MTT assay relative to control; format: functional; design: scale not given: the % may be the effect or the level left
[35] = test system: MDA-MB-435; assay: Growth inhibition of human MDA-MB-435 cells at 10 uM after 24 hrs by MTT assay relative to control; format: functional; design: scale not given: the % may be the effect or the level left
[36] = test system: NCI-H322M; assay: Growth inhibition of human NCI-H322M cells at 10 uM after 24 hrs by MTT assay relative to control; format: functional; design: scale not given: the % may be the effect or the level left
[37] = test system: MDA-MB-468; assay: Growth inhibition of human MDA-MB-468 cells at 10 uM after 24 hrs by MTT assay relative to control; format: functional; design: scale not given: the % may be the effect or the level left
[38] = test system: M14; assay: Growth inhibition of human M14 cells at 10 uM after 24 hrs by MTT assay relative to control; format: functional; design: scale not given: the % may be the effect or the level left
[39] = test system: A549; assay: Growth inhibition of human A549 cells at 10 uM after 24 hrs by MTT assay relative to control; format: functional; design: scale not given: the % may be the effect or the level left
[40] = test system: COLO 205; assay: Growth inhibition of human COLO205 cells at 10 uM after 24 hrs by MTT assay relative to control; format: functional; design: scale not given: the % may be the effect or the level left
[41] = test system: SNB-19; assay: Antitumor activity against human SNB19 cells after 24 hrs; format: functional, cell-based; conditions: SNB-19, 24 h
[42] = test system: NCI-H23; assay: Growth inhibition of human NCI-H23 cells at 10 uM after 24 hrs by MTT assay relative to control; format: functional; design: scale not given: the % may be the effect or the level left
[43] = test system: T47D; assay: Growth inhibition of human T47D cells at 10 uM after 24 hrs by MTT assay relative to control; format: functional; design: scale not given: the % may be the effect or the level left
[44] = test system: Malme-3M; assay: Growth inhibition of human MALME-3M cells at 10 uM after 24 hrs by MTT assay relative to control; format: functional; design: scale not given: the % may be the effect or the level left
[45] = test system: OVCAR-4; assay: Growth inhibition of human OVCAR4 cells at 10 uM after 24 hrs by MTT assay relative to control; format: functional; design: scale not given: the % may be the effect or the level left
[46] = test system: SR; assay: Growth inhibition of human SR cells at 10 uM after 24 hrs by MTT assay relative to control; format: functional; design: scale not given: the % may be the effect or the level left
[47] = test system: SF-295; assay: Growth inhibition of human SF295 cells at 10 uM after 24 hrs by MTT assay relative to control; format: functional; design: scale not given: the % may be the effect or the level left
[48] = test system: SNB-19; assay: Growth inhibition of human SNB19 cells at 10 uM after 24 hrs by MTT assay relative to control; format: functional; design: scale not given: the % may be the effect or the level left
[49] = test system: 786-0; assay: Growth inhibition of human 786-0 cells at 10 uM after 24 hrs by MTT assay relative to control; format: functional; design: scale not given: the % may be the effect or the level left
[50] = test system: U-251; assay: Growth inhibition of human U251 cells at 10 uM after 24 hrs by MTT assay relative to control; format: functional; design: scale not given: the % may be the effect or the level left
[51] = test system: OVCAR-5; assay: Growth inhibition of human OVCAR5 cells at 10 uM after 24 hrs by MTT assay relative to control; format: functional; design: scale not given: the % may be the effect or the level left
[52] = test system: SNB-75; assay: Growth inhibition of human SNB75 cells at 10 uM after 24 hrs by MTT assay relative to control; format: functional; design: scale not given: the % may be the effect or the level left
[53] = test system: CAKI-1; assay: Growth inhibition of human Caki1 cells at 10 uM after 24 hrs by MTT assay relative to control; format: functional; design: scale not given: the % may be the effect or the level left
[54] = test system: SK-MEL-28; assay: Growth inhibition of human SK-MEL-28 cells at 10 uM after 24 hrs by MTT assay relative to control; format: functional; design: scale not given: the % may be the effect or the level left
[55] = test system: MOLT-4; assay: Growth inhibition of human MOLT4 cells at 10 uM after 24 hrs by MTT assay relative to control; format: functional; design: scale not given: the % may be the effect or the level left
[56] = test system: NCI-H460; assay: Growth inhibition of human NCI-H460 cells at 10 uM after 24 hrs by MTT assay relative to control; format: functional; design: scale not given: the % may be the effect or the level left
[57] = test system: MDA-MB-231; assay: Growth inhibition of human MDA-MB-231 cells at 10 uM after 24 hrs by MTT assay relative to control; format: functional; design: scale not given: the % may be the effect or the level left
[58] = test system: SF-539; assay: Growth inhibition of human SF539 cells at 10 uM after 24 hrs by MTT assay relative to control; format: functional; design: scale not given: the % may be the effect or the level left
[59] = Growth inhibition of human […] cells at 10 uM after 24 hrs by MTT assay relative to control; format: functional; design: scale not given: the % may be the effect or the level left

Cc1onc(-c2c3ccccc3c(Cl)c3ccccc23)c1C(=O)Nc1cc(C(=O)NCCCNC(=O)c2cc(NC(=O)c3c(-c4c5ccccc5c(Cl)c5ccccc45)noc3C)cn2C)n(C)c1
Activity [1]: 126.28%
Activity [2]: 60.64%
Activity [3]: 84.24%
Activity [4]: 76.22%
Activity [5]: 103.72%
Activity [6]: 94.12%
Activity [7]: 88.63%
Activity [8]: 107.71%
Activity [9]: 66.96%
Activity [10]: 106.37%
Activity [11]: 79.36%
Activity [12]: 88.87%
Activity [13]: 109.27%
Activity [14]: 160.8%
Activity [15]: 100.87%
Activity [16]: 92.34%
Activity [17]: 64.38%
Activity [18]: 98.76%
Activity [19]: 118.2%
Activity [20]: 102.58%
Activity [21]: 104%
Activity [22]: 88.45%
Activity [23]: 86.93%
Activity [24]: 102.24%
Activity [25]: 103.19%
Activity [26]: 88.29%
Activity [27]: 87.7%
Activity [28]: 82.59%
Activity [29]: 130.16%
Activity [30]: 96.11%
Activity [31]: 72.67%
Activity [32]: 76.05%
Activity [33]: 93.17%
Activity [34]: 76.93%
Activity [35]: 85.56%
Activity [36]: 105.3%
Activity [37]: 92.57%
Activity [38]: 80.43%
Activity [39]: 86.45%
Activity [40]: 76.5%
IC50 [41]: > 100 µM
Activity [42]: 105.33%
Activity [43]: 76.21%
Activity [44]: 94.79%
Activity [45]: 67.84%
Activity [46]: 87.99%
Activity [47]: 109.86%
Activity [48]: 74.84%
Activity [49]: 81.38%
Activity [50]: 80.63%
Activity [51]: 95.22%
Activity [52]: 33.5%
Activity [53]: 71.63%
Activity [54]: 116.55%
Activity [55]: 91.53%
Activity [56]: 101.62%
Activity [57]: 86.9%
Activity [58]: 91.99%
Activity [59]: 78.11%
